One assay concerns male C57BL/6J mice. The assay can be described thus: Tolerance: DOI-induced HTR after 5 days repeated treatment. It counts as in vivo, mouse. The following applies: 5 days SC: 25N-N1-Nap 20, DOI 10, pimavanserin 1 mg/kg/day. The protocol: The mice were allowed to recover from the magnet implantation surgeries for at least 1 week prior to behavioral testing. HTR experiments were conducted in a well-lit room, and the mice were allowed to habituate to the room for at least 1 h prior to testing. Head twitches was assessed in a 12-cm diameter glass cylinder surrounded by a magnetometer coil. Coil voltage was low-pass filtered (2 kHz), amplified, and digitized (20-kHz sampling rate) using a Powerlab/8SP with LabChart v 7.3.2 (ADInstruments, Colorado Springs, CO, USA). […] HTR counts were analyzed using one-way ANOVAs. Dunnett's test was used for post hoc comparisons.

Another assay concerns the target 5-HT2A (Homo sapiens, UniProt P28223). The assay is described as follows: [3H]-ketanserin displacement, 5-HT2A membranes. It counts as binding. Also noted: ES-313-M400UA (membranes); host or cells: CHO-K1.
The target of the next assay is T1, h5-HT2A (Homo sapiens, UniProt P28223).
T1 construct: expressed in transfected cells
The assay can be described thus: Antagonism of 5-HT induced Ca2+ flux activation. It counts as cell-based. The following applies: FIG. 1D. As for the experimental part: (§1) (A). DOI, a hallucinogen and 5-HT2A agonist, was administered IP 10 min after SC administration of vehicle or test drug. A and then HTR activity was assessed for 30 minutes. *p<0.001, significant difference vs. vehicle (B). Vehicle or the NMDA receptor antagonist PCP (5 mg/kg) was injected IP 10 min after SC administration of vehicle or 25N-NB1-Nap (16), and then the mice were placed in the test chambers 10 min later for a 60-min assessment of locomotor activity. (C). […] Mice were treated with vehicle or M100907 (0.03 mg/kg SC) 10 min prior to vehicle or PCP (5 mg/kg IP): animals were placed in the test chambers 10 min after treatment with PCP. Animals were tested for 60 min. *p<0.01 vs. vehicle: ^#p<0.01 vs. PCP alone.
Calcium flux was measured using stable-expressing 5-HT2 Flp-In 293 T-Rex Tetracycline inducible system described previously (Investigation of the Structure-Activity Relationships of Psilocy bin Analogues, ACS Pharmacol. Transl. Sci. 2020, Publication Date: Dec. 14, 2020, https://doi.org/10.1021/acsptsci.0c00176). […] After dye load, cells were allowed to equilibrate to room temperature for 15 minutes, and then placed in a FLIPR^TETRA fluorescence imaging plate reader (Molecular Devices). Fluorescence for the FLIPR^TETRA were programmed to read baseline fluorescence for 10 s (1 read/s), and afterward 5 μl of drug per well was added and read for a total of 5-10 min (1 read/s). […]
Background: Calcium flux is commonly read through the fluorescence of an indicator in the cells.

The subject of another assay is mice. The assay is described as follows: PCP-induced locomotor hyperactivity. The assay is classed as in vivo, mouse. The protocol:
as §1
Male C57BL/6J mice (6-8 weeks old) from Jackson Labs (Bar Harbor, ME, USA) were used for the behavioral experiments. The mice were housed on a reversed light-dark cycle (lights on at 1900 h, off at 0700 h) in an AAAC-approved vivarium at the University of California San Diego. Mice were housed up to four per cage in a climate-controlled room and with food and water provided ad libitum except during behavioral testing. Testing was performed between 1000 and 1800 h (during the dark phase of the light-dark cycle). The studies were conducted in accordance with National Institutes Health (NIH) guidelines and were approved by the University of California San Diego Institutional Animal Care and Use Committee.
Edelfosine, DOI, R—(−)-DOI, and PCP were injected IP (5 mL/kg): 25N—NB and its derivatives were injected SC (5 mL/kg or 10 mL/kg): YM-254,890 was injected into the lateral ventricle (2 μL) over 1 min.
The mouse behavioral pattern monitor (BPM) was used to assess locomotor activity. Each mouse BPM chamber (San Diego Instruments, San Diego, CA, USA) is a transparent Plexiglas box with an opaque 30×60 cm floor, enclosed in a ventilated isolation box. The position of the mouse in x.y coordinates is recorded by a grid of 12×24 infrared photobeams located 1 cm above the floor. A second row of 16 photobeams (parallel to the long axis of the chamber, located 2.5 cm above the floor) is used to detect rearing behavior. Holepoking behavior is detected by 11 1.4-cm holes that are situated in the walls (3 holes in each long wall, 2 holes in each short wall) and the floor ([…]); each hole is equipped with an infrared photobeam. The status of each photobeam is sampled every 55 ms and recorded for offline analysis. Locomotor activity was quantified as distance traveled, which was analyzed in 20-min blocks using a three-way ANOVA, with pretreatment and treatment as between subject variables and time as a within-subject variable. Tukey's studentized range method was used for post hoc comparisons.

A further assay concerns humans. The following applies: intranasal or sublingual routes; cited from earlier work.

Data on three molecules can be found in US20240254087A1, “SELECTIVE, PARTIAL, AND ARRESTIN-BIASED 5-HT2A AGONISTS WITH UTILITY IN VARIOUS DISORDERS” (Saint Joseph's University, priority 2021, published 2024).

The structures appear in SMILES notation.

By Ki is commonly meant the dissociation constant of the complex between target and ligand, obtained from inhibition or displacement.

5-HT2A, sequence (P28223 whole entry): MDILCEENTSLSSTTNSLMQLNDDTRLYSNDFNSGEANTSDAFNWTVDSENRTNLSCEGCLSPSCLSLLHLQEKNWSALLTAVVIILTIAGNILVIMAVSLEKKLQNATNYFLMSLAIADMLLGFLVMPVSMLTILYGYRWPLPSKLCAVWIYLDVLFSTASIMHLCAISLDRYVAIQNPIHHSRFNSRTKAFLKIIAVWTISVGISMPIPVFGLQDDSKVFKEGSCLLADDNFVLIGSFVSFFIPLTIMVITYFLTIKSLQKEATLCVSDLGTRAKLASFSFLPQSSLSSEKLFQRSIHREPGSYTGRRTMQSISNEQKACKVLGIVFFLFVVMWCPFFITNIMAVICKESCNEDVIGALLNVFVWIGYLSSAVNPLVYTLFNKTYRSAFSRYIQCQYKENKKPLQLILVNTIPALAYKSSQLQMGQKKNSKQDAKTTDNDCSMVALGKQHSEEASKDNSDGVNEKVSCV
T1 sequence (P28223 whole entry): as above

Turning to `COc1cc([N+](=O)[O-])c(OC)cc1CCNCc1cccc2ccccc12` [25N-N-1-Nap (16), [2-(2,5-dimethoxy-4-nitrophenyl)ethyl][(naphthalen-1-yl)methyl]amine], the “Ability of DOI (1 mg/kg IP) to induce the HTR after repeated daily treatment” value in the assay on male C57BL/6J mice is on record as “reduced significantly”. For the same molecule, the Ki on 5-HT2A is 4.27 nM. On h5-HT2A, the “Antagonism of 5-HT induced h5-HT2A Ca2+ flux activation” value is listed as “Antagonism”. Besides, the “Effect on baseline locomotor activity” value in the assay on mice (3 mg/kg SC) is given as “had no effect”. Also, the “Effect on PCP-induced locomotor hyperactivity” value in the assay with mice (PCP 5 mg/kg IP, 25N-N1-Nap 3 mg/kg SC, M100907 0.03 mg/kg SC) was “antagonized”.

In turn, `COc1cc([N+](=O)[O-])c(OC)cc1CCNCc1ccccc1OC` [25N-NBOMe (4), [2-(2,5-dimethoxy-4-nitrophenyl)ethyl] [(2-methoxyphenyl)methyl]amine] showed a Ki on 5-HT2A of 1.41 nM. Also, the “Active dose in humans” value with humans is 0.3 to 0.8 mg.

With `COc1cc([N+](=O)[O-])c(OC)cc1CCNCc1ccccc1-c1ccccc1` [25N-NBPh (17), ({[1,1′-biphenyl]-2-yl}methyl)[2-(2,5-dimethoxy-4-nitrophenyl)ethyl]amine], the “Antagonism of 5-HT induced h5-HT2A Ca2+ flux activation” value on h5-HT2A is “Antagonism”.
